From ChEMBL document CHEMBL3885881, “DrugMatrix”

Species on record: Rattus norvegicus
Experiment: DrugMatrix - Regimen: Daily Repeat
Format: toxicity, organism-based, Sprague-Dawley
Parameters: regimen Daily Repeat, gender Male, age 6-8 weeks
Conditions: in vivo, po, route oral GAVAGE, vehicle 100 % WATER; for ABSOLUTE BASOPHIL / ABSOLUTE EOSINOPHIL / ABSOLUTE LYMPHOCYTE / ABSOLUTE MONOCYTE / ABSOLUTE SEGMENTED NEUTROPHIL / BASOPHIL / EOSINOPHIL / ERYTHROCYTE COUNT / HEMATOCRIT / HEMOGLOBIN / LEUKOCYTE COUNT / LYMPHOCYTE / MEAN CORPUSCULAR HEMOGLOBIN / MEAN CORPUSCULAR HEMOGLOBIN CONCENTRATION / MEAN CORPUSCULAR VOLUME / MONOCYTE / NEUTROPHIL / NUCLEATED RED BLOOD CELLS / PLATELET COUNT: tissue Blood; for ALANINE AMINOTRANSFERASE / ALBUMIN / ALKALINE PHOSPHATASE / ASPARTATE AMINOTRANSFERASE / BLOOD UREA NITROGEN / CARBON DIOXIDE / CHLORIDE / CHOLESTEROL / CREATINE PHOSPHOKINASE / CREATININE / GLUCOSE / LACTATE DEHYDROGENASE / LIPASE / PHOSPHORUS / POTASSIUM / SODIUM / TOTAL BILIRUBIN / TOTAL PROTEIN / URIC ACID: tissue Plasma
[1] = 14 mg/kg, 72 h, dose level Low, time 3 day
[2] = 14 mg/kg, 120 h, dose level Low, time 5 day
[3] = 1500 mg/kg, 72 h, dose level High, time 3 day
[4] = 1500 mg/kg, 120 h, dose level High, time 5 day

## CN(C)[C@@H]1C(O)=C(C(N)=O)C(=O)[C@@]2(O)C(O)=C3C(=O)c4c(O)cccc4[C@@](C)(O)[C@H]3[C@H](O)[C@@H]12 [OXYTETRACYCLINE]
[1]
  ABSOLUTE BASOPHIL: 0 CELLS/uL
  ABSOLUTE EOSINOPHIL: 0 CELLS/uL
  ABSOLUTE LYMPHOCYTE: 14072 CELLS/uL
  ABSOLUTE MONOCYTE: 56.33 CELLS/uL
  ABSOLUTE SEGMENTED NEUTROPHIL: 1938.33 CELLS/uL
  BASOPHIL: 0%
  EOSINOPHIL: 0%
  ERYTHROCYTE COUNT: 5.7 x10E6/uL
  HEMATOCRIT: 36.73%
  HEMOGLOBIN: 14.4 G/DL
  LEUKOCYTE COUNT: 16.07 x10E3/uL
  LYMPHOCYTE: 87.67%
  MEAN CORPUSCULAR HEMOGLOBIN: 25.27 pg
  MEAN CORPUSCULAR HEMOGLOBIN CONCENTRATION: 39.27 G/DL
  MEAN CORPUSCULAR VOLUME: 64.4 fL
  MONOCYTE: 0.33%
  NEUTROPHIL: 12%
  NUCLEATED RED BLOOD CELLS: 0.33 /100WBC
  PLATELET COUNT: 1430 x10E3/uL
  ALANINE AMINOTRANSFERASE: 53.67 u/L
  ALBUMIN: 4.57 G/DL
  ALKALINE PHOSPHATASE: 372 u/L
  ASPARTATE AMINOTRANSFERASE: 89.33 u/L
  BLOOD UREA NITROGEN: 16.33 mg/dL
  CARBON DIOXIDE: 26.67 mmol/L
  CHLORIDE: 103.67 MEQ/L
  CHOLESTEROL: 85.33 mg/dL
  CREATINE PHOSPHOKINASE: 211.67 u/L
  CREATININE: 0.27 mg/dL
  GLUCOSE: 165 mg/dL
  LACTATE DEHYDROGENASE: 160 u/L
  LIPASE: 10 u/L
  PHOSPHORUS: 13.07 mg/dL
  POTASSIUM: 7.37 MEQ/L
  SODIUM: 146.77 MEQ/L
  TOTAL BILIRUBIN: 0.23 mg/dL
  TOTAL PROTEIN: 6.17 G/DL
  URIC ACID: 1.9 mg/dL
[2]
  ABSOLUTE BASOPHIL: 0 CELLS/uL
  ABSOLUTE EOSINOPHIL: 0 CELLS/uL
  ABSOLUTE LYMPHOCYTE: 12168.33 CELLS/uL
  ABSOLUTE MONOCYTE: 40 CELLS/uL
  ABSOLUTE SEGMENTED NEUTROPHIL: 991.67 CELLS/uL
  BASOPHIL: 0%
  EOSINOPHIL: 0%
  ERYTHROCYTE COUNT: 5.46 x10E6/uL
  HEMATOCRIT: 35.43%
  HEMOGLOBIN: 14.23 G/DL
  LEUKOCYTE COUNT: 13.2 x10E3/uL
  LYMPHOCYTE: 92%
  MEAN CORPUSCULAR HEMOGLOBIN: 26.03 pg
  MEAN CORPUSCULAR HEMOGLOBIN CONCENTRATION: 40.13 G/DL
  MEAN CORPUSCULAR VOLUME: 64.83 fL
  MONOCYTE: 0.33%
  NEUTROPHIL: 7.67%
  NUCLEATED RED BLOOD CELLS: 0 /100WBC
  PLATELET COUNT: 1202.33 x10E3/uL
  ALANINE AMINOTRANSFERASE: 48.67 u/L
  ALBUMIN: 4.47 G/DL
  ALKALINE PHOSPHATASE: 399.33 u/L
  ASPARTATE AMINOTRANSFERASE: 88 u/L
  BLOOD UREA NITROGEN: 16.67 mg/dL
  CARBON DIOXIDE: 26.33 mmol/L
  CHLORIDE: 102 MEQ/L
  CHOLESTEROL: 69.33 mg/dL
  CREATINE PHOSPHOKINASE: 216.67 u/L
  CREATININE: 0.2 mg/dL
  GLUCOSE: 150.33 mg/dL
  LACTATE DEHYDROGENASE: 200.67 u/L
  LIPASE: 9 u/L
  PHOSPHORUS: 14.23 mg/dL
  POTASSIUM: 7.61 MEQ/L
  SODIUM: 147.57 MEQ/L
  TOTAL BILIRUBIN: 0.17 mg/dL
  TOTAL PROTEIN: 6.43 G/DL
  URIC ACID: 2.1 mg/dL
[3]
  ABSOLUTE BASOPHIL: 0 CELLS/uL
  ABSOLUTE EOSINOPHIL: 0 CELLS/uL
  ABSOLUTE LYMPHOCYTE: 13408.67 CELLS/uL
  ABSOLUTE MONOCYTE: 33.33 CELLS/uL
  ABSOLUTE SEGMENTED NEUTROPHIL: 1491.33 CELLS/uL
  BASOPHIL: 0%
  EOSINOPHIL: 0%
  ERYTHROCYTE COUNT: 5.4 x10E6/uL
  HEMATOCRIT: 33.33%
  HEMOGLOBIN: 13.33 G/DL
  LEUKOCYTE COUNT: 14.93 x10E3/uL
  LYMPHOCYTE: 90.67%
  MEAN CORPUSCULAR HEMOGLOBIN: 24.7 pg
  MEAN CORPUSCULAR HEMOGLOBIN CONCENTRATION: 40.03 G/DL
  MEAN CORPUSCULAR VOLUME: 61.67 fL
  MONOCYTE: 0.33%
  NEUTROPHIL: 9%
  NUCLEATED RED BLOOD CELLS: 0 /100WBC
  PLATELET COUNT: 1276 x10E3/uL
  ALANINE AMINOTRANSFERASE: 67 u/L
  ALBUMIN: 4.17 G/DL
  ALKALINE PHOSPHATASE: 287.67 u/L
  ASPARTATE AMINOTRANSFERASE: 90.33 u/L
  BLOOD UREA NITROGEN: 14 mg/dL
  CARBON DIOXIDE: 30 mmol/L
  CHLORIDE: 103 MEQ/L
  CHOLESTEROL: 93 mg/dL
  CREATINE PHOSPHOKINASE: 208.33 u/L
  CREATININE: 0.2 mg/dL
  GLUCOSE: 142.33 mg/dL
  LACTATE DEHYDROGENASE: 267.67 u/L
  LIPASE: 10 u/L
  PHOSPHORUS: 13.33 mg/dL
  POTASSIUM: 6.65 MEQ/L
  SODIUM: 147.53 MEQ/L
  TOTAL BILIRUBIN: 0.1 mg/dL
  TOTAL PROTEIN: 5.63 G/DL
  URIC ACID: 1.47 mg/dL
[4]
  ABSOLUTE BASOPHIL: 0 CELLS/uL
  ABSOLUTE EOSINOPHIL: 0 CELLS/uL
  ABSOLUTE LYMPHOCYTE: 10152.67 CELLS/uL
  ABSOLUTE MONOCYTE: 25.33 CELLS/uL
  ABSOLUTE SEGMENTED NEUTROPHIL: 755.33 CELLS/uL
  BASOPHIL: 0%
  EOSINOPHIL: 0%
  ERYTHROCYTE COUNT: 5.33 x10E6/uL
  HEMATOCRIT: 34.37%
  HEMOGLOBIN: 13.93 G/DL
  LEUKOCYTE COUNT: 10.93 x10E3/uL
  LYMPHOCYTE: 92.33%
  MEAN CORPUSCULAR HEMOGLOBIN: 26.17 pg
  MEAN CORPUSCULAR HEMOGLOBIN CONCENTRATION: 40.53 G/DL
  MEAN CORPUSCULAR VOLUME: 64.53 fL
  MONOCYTE: 0.33%
  NEUTROPHIL: 7.33%
  NUCLEATED RED BLOOD CELLS: 0.33 /100WBC
  PLATELET COUNT: 1197.33 x10E3/uL
  ALANINE AMINOTRANSFERASE: 58 u/L
  ALBUMIN: 4.37 G/DL
  ALKALINE PHOSPHATASE: 321.33 u/L
  ASPARTATE AMINOTRANSFERASE: 83.33 u/L
  BLOOD UREA NITROGEN: 16 mg/dL
  CARBON DIOXIDE: 26.33 mmol/L
  CHLORIDE: 100.33 MEQ/L
  CHOLESTEROL: 75.67 mg/dL
  CREATINE PHOSPHOKINASE: 222.33 u/L
  CREATININE: 0.32 mg/dL
  GLUCOSE: 138 mg/dL
  LACTATE DEHYDROGENASE: 303 u/L
  LIPASE: 11 u/L
  PHOSPHORUS: 13.23 mg/dL
  POTASSIUM: 6.84 MEQ/L
  SODIUM: 146.1 MEQ/L
  TOTAL BILIRUBIN: 0.1 mg/dL
  TOTAL PROTEIN: 6.3 G/DL
  URIC ACID: 1.47 mg/dL
